Experimental data: patent US10981932B2, “Macrocyclic indole derivatives” (Bayer Aktiengesellschaft, priority 2016, dated 2021)
Where a name gives a salt, the structure may show the parent alone.

Key:
[1] = target: T1, BCL-2 (Homo sapiens, UniProt P10415); assay: Protein-protein interaction assay BCL-2/Bad BH3 peptide (BCL-2 assay), TR-FRET; format: binding; details: His-BCL-2 / Bad BH3-derived peptide, median
T1 construct: BCL-2 (amino acids 1-211, C-terminal fused to a hexahistidine (6×His) tag); purchased BPS Bioscience (San Diego, Calif., USA); host or cells: E. coli

[2] = target: T2, BCL-XL (Homo sapiens, UniProt Q07817); assay: Protein-protein interaction assay BCL-XL/Bad BH3 peptide (BCL-XL assay), TR-FRET; format: binding; details: His-BCL-XL / Bad BH3-derived peptide
T2 construct: BCL-XL (amino acids 1-212, C-terminal fused to a hexahistidine (6×His) tag); purchased BPS Bioscience (San Diego, Calif., USA); host or cells: E. coli
Summary of the method: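 TR-FRET competition of His-tagged human BCL-XL (1 nM final) with biotinylated Bad BH3 peptide, 11 compound concentrations 0.1 nM–20 μM, in Tris pH 7 buffer with NaCl, KF, DTT, BGG. 10 min pre-incubation, then 1 h at 22 °C plus overnight at 4 °C; 665/620 nm ratio normalized, IC50 from 4-parameter fit.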

T2 sequence (Q07817 1-212): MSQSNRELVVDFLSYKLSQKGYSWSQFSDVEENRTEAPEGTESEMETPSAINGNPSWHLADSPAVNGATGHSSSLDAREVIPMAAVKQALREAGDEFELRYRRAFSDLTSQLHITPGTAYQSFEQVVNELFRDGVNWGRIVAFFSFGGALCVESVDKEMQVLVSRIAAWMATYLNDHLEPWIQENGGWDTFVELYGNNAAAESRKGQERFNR
T1 sequence (P10415 1-211): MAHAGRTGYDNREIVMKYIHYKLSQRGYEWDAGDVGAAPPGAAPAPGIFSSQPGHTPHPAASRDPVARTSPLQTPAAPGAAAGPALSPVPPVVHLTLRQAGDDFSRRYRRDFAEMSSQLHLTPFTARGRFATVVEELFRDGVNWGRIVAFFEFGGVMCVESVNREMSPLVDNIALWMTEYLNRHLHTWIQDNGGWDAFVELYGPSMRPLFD

Row | SMILES | IC50 [1] [µM] | IC50 [2] [µM]
1 | Cn1nc(COc2ccc(N3CCN(S(=O)(=O)C4CC4)CC3)cc2)c2c1COCCCCn1c(C(=O)O)c(CCCOc3cccc4ccccc34)c3cccc-2c31 (single isomer, unassigned; enantiomer 2) [Example 1-13, 3-({4-[4-(cyclopropylsulfonyl)piperazin-1-yl]phenoxy}methyl)-1-methyl-7-[3-(naphthalen-1-yloxy)propyl]-1,10,11,12,13,15-hexahydropyrazolo[4′,3′:9,10][1,6]oxazacycloundecino[8,7,6-hi]indole-8-carboxylic Acid (Enantiomer 2)] | > 20 | > 20
2 | Cc1ccc2c(CCCOc3cccc4ccccc34)c(C(=O)O)n3c2c1-c1c(nn(C)c1C)CN(C)CCC3 (single isomer, unassigned; enantiomer 2) [Example 074, 7,10,11,12-tetramethyl-1-[3-(naphthalen-1-yloxy)propyl]-4,5,6,7,8,10-hexahydropyrazolo[3′,4′:7,8][1,5]diazecino[9,10,1-hi]indole-2-carboxylic Acid (Enantiomer 2)] | > 20 | > 20

The next lines start with the values.

Row | IC50 [1] [µM] | IC50 [2] [µM] | SMILES
3 | > 20 | > 20 | COCc1nn(C)c2c1-c1cccc3c(CCCOc4cccc5ccccc45)c(C(=O)O)n(c13)CCCN(C)C2 (single isomer, unassigned; enantiomer 2) [Example 1-104, 11-(methoxymethyl)-7,9-dimethyl-1-[3-(1-naphthyloxy)propyl]-4,5,6,7,8,9-hexahydropyrazolo[3′,4′:7,8][1,5]diazecino[9,10,1-hi]indole-2-carboxylic Acid (Enantiomer 2)]
4 | > 20 | > 20 | Cc1nn(C)c2c1-c1cccc3c(CCCOc4ccc(F)c5ccccc45)c(C(=O)O)n(c13)CCCCOC2 (single isomer, unassigned; enantiomer 2) [Example 023, 7-{3-[(4-fluoronaphthalen-1-yl)oxy]propyl}-1,3-dimethyl-1,10,11,12,13,15-hexahydropyrazolo[4′3′:9,10][1,6]oxazacycloundecino[8,7,6-hi]indole-8-carboxylic acid-N-ethylethanamine Salt (Enantiomer 2)]
5 | > 20 | > 20 | Cc1c2c(nn1CCN1CCOCC1)CN(C)CCCn1c(C(=O)O)c(CCCOc3cccc4ccccc34)c3cccc-2c31 (single isomer, unassigned; enantiomer 2) [Example 061, 7,11-dimethyl-10-[2-(morpholin-4-yl)ethyl]-1-[3-(naphthalen-1-yloxy)propyl]-4,5,6,7,8,10-hexahydropyrazolo[3′,4′:7,8][1,5]diazecino[9,10,1-hi]indole-2-carboxylic Acid (Enantiomer 2)]
